These compounds were tested against T1, human recombinant collagenase (Homo sapiens, UniProt P03956) (assay: Collagenase inhibition assay (Cawston and Barrett)). Settings: acetylated 3H type 1 bovine collagen, 37° C., 18 h.
T1 construct: made in house; host or cells: E. coli
T1 sequence (P03956 100-469): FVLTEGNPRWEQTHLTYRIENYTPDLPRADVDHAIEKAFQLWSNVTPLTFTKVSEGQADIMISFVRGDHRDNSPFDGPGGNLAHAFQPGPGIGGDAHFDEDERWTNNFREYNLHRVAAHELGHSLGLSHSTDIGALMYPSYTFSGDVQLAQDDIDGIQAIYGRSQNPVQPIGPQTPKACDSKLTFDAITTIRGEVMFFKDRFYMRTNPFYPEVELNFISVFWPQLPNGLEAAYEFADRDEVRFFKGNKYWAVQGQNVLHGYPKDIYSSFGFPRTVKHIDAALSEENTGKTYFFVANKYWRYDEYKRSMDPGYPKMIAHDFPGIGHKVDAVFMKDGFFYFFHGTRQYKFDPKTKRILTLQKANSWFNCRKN
Type: biochemical
Protocol: Procedure 2: The ability of test compounds to inhibit collagenase was investigated using the following procedure.
Collagenase Inhibition Assay:
The potency of compounds to act as inhibitors of collagenase was determined by the method of Cawston and Barrett (Anal. Biochem. 99, 340-345, 1979), hereby incorporated by reference, whereby a 1 mM solution of the inhibitor being tested or dilutions thereof, was incubated at 37° C. for 18 h with collagen and human recombinant collagenase, from synovial fibroblasts cloned, expressed and purified from E. coli, (buffered with 150 mM Tris, pH 7.6, containing 15 mM calcium chloride, 0.05% Brij 35, 200 mM sodium chloride and 0.02% sodium azide). The collagen was acetylated ^3H type 1 bovine collagen prepared by the method of Cawston and Murphy (methods in Enzymology 80, 711,1981) The samples were centrifuged to sediment undigested collagen and an aliquot of the radioactive supernatant removed for assay on a scintillation counter as a measure of hydrolysis. The collagenase activity in the presence of 1 mM inhibitor, or dilution thereof, was compared to activity in a control devoid of inhibitor and the results reported as that concentration effecting 50% of the collagenase (IC50).

IC50, ≥ 10 µM:
O=C(NO)[C@@H](Cc1ccccc1)NS(=O)(=O)Cc1ccc2ccccc2c1 [Example 5]
CC(C)(C)C[C@@H](NS(=O)(=O)Cc1ccc2ccccc2c1)C(=O)NO [Example 6]
O=C(NO)[C@@H](CC1CCCCC1)NS(=O)(=O)Cc1ccc2ccccc2c1 [Example 9]
O=C(NO)[C@H](NS(=O)(=O)Cc1ccc2ccccc2c1)c1ccc(O)cc1 [Example 12]
O=C(NO)[C@@H](Cc1csc2ccccc12)NS(=O)(=O)Cc1ccc2ccccc2c1 [Example 14]
O=C(NO)[C@H](NS(=O)(=O)Cc1ccc2sccc2c1)c1ccccc1 [Example 28, (R)-2-(Benzo[b]thiophen-5-ylmethanesulfonylamino)-N-hydroxy-2-phenylacetamide]
O=C(NO)[C@H](NS(=O)(=O)C[C@@H]1CCc2ccccc2C1)c1ccccc1 [Example 29, (R)-2-Phenyl-2-[(R)-1-(1,2,3,4-tetrahydronaphthalen-2-yl)methanesulfonylamino]-N-hydroxyacetamide]
O=C(NO)[C@@H](Cc1c[nH]c2ccccc12)NS(=O)(=O)Cc1ccc2sccc2c1 [Example 31, (R)-2-(Benzo[b]thiophen-5-ylmethanesulfonylamino)-N-hydroxy-3-(1H-indol-3-yl) propionamide.]
O=C(NO)[C@H](NS(=O)(=O)Cc1ccc2sccc2c1)c1ccc(O)cc1 [Example 33]
O=C(NO)[C@@H](CCc1ccccc1)NS(=O)(=O)Cc1ccc2sccc2c1 [Example 38, (R)-2-(Benzo[b]thiophen-5-ylmethanesulfonylamino)-N-hydroxy-4-phenyl-butyramide]
CC(C)(C)C[C@@H](NS(=O)(=O)Cc1ccc2sccc2c1)C(=O)NO [Example 42]
CC(C)(C)[C@@H](NS(=O)(=O)Cc1ccc2sccc2c1)C(=O)NO [Example 43]
CC(C)c1ccc([C@@H](NS(=O)(=O)Cc2ccc3sccc3c2)C(=O)NO)cc1 [Example 56, (R)-2-(Benzo[b]thiophen-5-ylmethanesulfonylamino)-2-(4-isopropylphenyl)-N-hydroxy-acetamide]
O=C(NO)[C@@H](CNS(=O)(=O)Cc1ccccc1)NS(=O)(=O)Cc1ccc2sccc2c1 [Example 69, (R)-2-(Benzo[b]thiophen-5-ylmethanesulfonylamino)-N-hydroxy-3-(phenylmethanesulfonylamino)-propionamide]

— patent US20030199571A1, “(Hetero) Bicyclymethanesulfonylamino-substituted hydroxamic acid derivatives” (priority 1999, published 2003)
